According to patent publication US9856279B2 (AGIOS PHARMACEUTICALS, INC, priority 2011, dated 2018):
pIC50: −log10 of the molar value.

These compounds were tested against IDH1 R132H (Homo sapiens, UniProt O75874, R132H) (assay: Assay for IDH1 R132H inhibitors (NADPH/aKG, resazurin detection)). Conditions: Table 3; enzyme assay, 50 minutes at room temperature; read-out: IC50 (IDH1 R132H Inhibition).
Format: biochemical
Method: Assays were conducted in a volume of 76 μl assay buffer (150 mM NaCl, 10 mM MgCl2, 20 mM Tris pH 7.5, 0.03% bovine serum albumin) as follows in a standard 384-well plate: To 25 ul of substrate mix (8 uM NADPH, 2 mM aKG), 1 μl of test compound was added in DMSO. The plate was centrifuged briefly, and then 25 μl of enzyme mix was added (0.2 μg/ml IDH1 R132H) followed by a brief centrifugation and shake at 100 RPM. The reaction was incubated for 50 minutes at room temperature, then 25 μl of detection mix (30 μM resazurin, […]) was added and the mixture further incubated for 5 minutes at room temperature. The conversion of resazurin to resorufin was detected by fluorescent spectroscopy at Ex544 Em590 c/o 590.

Sequence of IDH1 R132H (O75874 whole entry R132H): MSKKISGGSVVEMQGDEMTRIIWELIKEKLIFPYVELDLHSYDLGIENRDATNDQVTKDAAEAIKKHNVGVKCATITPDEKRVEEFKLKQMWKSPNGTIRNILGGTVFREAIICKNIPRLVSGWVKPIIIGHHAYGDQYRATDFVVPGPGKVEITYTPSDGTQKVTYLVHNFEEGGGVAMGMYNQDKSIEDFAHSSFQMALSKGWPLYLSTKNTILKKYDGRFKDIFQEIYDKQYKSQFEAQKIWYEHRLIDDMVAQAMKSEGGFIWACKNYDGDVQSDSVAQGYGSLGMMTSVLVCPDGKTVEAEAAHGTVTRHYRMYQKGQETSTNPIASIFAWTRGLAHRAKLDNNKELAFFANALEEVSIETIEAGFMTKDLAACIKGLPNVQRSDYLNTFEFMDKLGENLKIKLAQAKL

Structure (SMILES) | pIC50
N#Cc1c(-c2ccccc2)cc(C2CCCCC2)nc1N1CCN(C(=O)c2ccco2)CC1 [Compound 137, 6-cyclohexyl-2-(4-(furan-2-carbonyl)piperazin-1-yl)-4-phenylnicotinonitrile] | 4.82 to 5.30
CC1CN(c2nc(C3CCCCC3)cc(-c3ccccc3)c2C#N)CCN1C(=O)c1ccoc1 (stereo not drawn) [Compound 138, 6-cyclohexyl-2-(4-(furan-3-carbonyl)-3-methylpiperazin-1-yl)-4-phenylnicotinonitrile] | 5.30 to 6.00
CC(C)c1nc(N2CCN(C(=O)Cc3ccccc3)C(C)C2)c(C#N)cc1-c1ccccc1 (stereo not drawn) [Compound 139, 6-isopropyl-2-(3-methyl-4-(2-phenylacetyl)piperazin-1-yl)-5-phenylnicotinonitrile] | 5.30 to 6.00
CC(C)c1nc(N2C[C@@H](C)N(C(=O)Cc3ccccc3)[C@@H](C)C2)c(C#N)cc1-c1ccccc1 [Compound 140, 2-((3S,5R)-3,5-dimethyl-4-(2-phenylacetyl)piperazin-1-yl)-6-isopropyl-5-phenylnicotinonitrile] | 5.30 to 6.00
CC(C)c1nc(N2C[C@@H](C)N(C(=O)c3ccoc3)[C@@H](C)C2)c(C#N)cc1-c1ccccc1 [Compound 141, 2-((3S,5R)-4-(furan-3-carbonyl)-3,5-dimethylpiperazin-1-yl)-6-isopropyl-5-phenylnicotinonitrile] | 4.82 to 5.30
C[C@@H]1CN(c2nc(C3CCCCC3)cc(-c3ccccc3)c2C#N)C[C@H](C)N1C(=O)c1ccoc1 [Compound 142, 6-cyclohexyl-2-((3S,5R)-4-(furan-3-carbonyl)-3,5-dimethylpiperazin-1-yl)-4-phenylnicotinonitrile] | 5.30 to 6.00
CC(C)c1nc(N2CCN(C(=O)Cc3ccccc3)[C@H](C)C2)c(C#N)cc1-c1ccccc1 [Compound 143, (R)-6-isopropyl-2-(3-methyl-4-(2-phenylacetyl)piperazin-1-yl)-5-phenylnicotinonitrile] | 5.30 to 6.00
CC(C)c1nc(N2CCN(C(=O)c3ccoc3)[C@@H](C)C2)c(C#N)cc1-c1ccccc1 [Compound 144, (S)-2-(4-(furan-3-carbonyl)-3-methylpiperazin-1-yl)-6-isopropyl-5-phenylnicotinonitrile] | 5.30 to 6.00
COc1ccccc1-c1cc(C(C)C)nc(N2CCN(C(=O)Cc3ccccc3)CC2)c1C#N [Compound 146, 6-isopropyl-4-(2-methoxyphenyl)-2-(4-(2-phenylacetyl)piperazin-1-yl)nicotinonitrile] | 4.82 to 5.30
COc1ccccc1-c1cc(C(C)C)nc(N2CCN(C(=O)c3ccco3)C(C)C2)c1C#N (stereo not drawn) [Compound 147, 2-(4-(furan-2-carbonyl)-3-methylpiperazin-1-yl)-6-isopropyl-4-(2-methoxyphenyl)nicotinonitrile] | 4.82 to 5.30
COc1ccccc1-c1cc(C(C)C)nc(N2CCN(C(=O)c3ccoc3)[C@H](C)C2)c1C#N [Compound 148, (R)-2-(4-(furan-3-carbonyl)-3-methylpiperazin-1-yl)-6-isopropyl-4-(2-methoxyphenyl)nicotinonitrile] | 5.30 to 6.00
COc1ccccc1-c1cc(C(C)C)nc(N2CCN(C(=O)Cc3ccccc3)C(C)C2)c1C#N (stereo not drawn) [Compound 149] | 5.30 to 6.00
CC(C)c1nc(N2CCN(C(=O)c3ccoc3)[C@H](C)C2)c(C#N)cc1-c1ccccc1 [Compound 150, (R)-2-(4-(furan-3-carbonyl)-3-methylpiperazin-1-yl)-6-isopropyl-5-phenylnicotinonitrile] | 5.30 to 6.00
COc1cccc(-c2cc(C(C)C)nc(N3CCN(C(=O)c4ccoc4)[C@H](C)C3)c2C#N)c1 [Compound 151, (R)-2-(4-(furan-3-carbonyl)-3-methylpiperazin-1-yl)-6-isopropyl-4-(3-methoxyphenyl)nicotinonitrile] | 5.30 to 6.00
CC(C)c1cc(-c2cccc(O)c2)c(C#N)c(N2CCN(C(=O)c3ccoc3)[C@H](C)C2)n1 [Compound 152, (R)-2-(4-(furan-3-carbonyl)-3-methylpiperazin-1-yl)-4-(3-hydroxyphenyl)-6-isopropylnicotinonitrile] | 5.30 to 6.00
CC(C)c1nc(N2CCN(C(=O)c3ccoc3)C(c3ccccc3)C2)c(C#N)cc1-c1ccccc1 (stereo not drawn) [Compound 153, 2-(4-(furan-3-carbonyl)-3-phenylpiperazin-1-yl)-6-isopropyl-5-phenylnicotinonitrile] | 4.82 to 5.30
CC(C)c1cc(-c2ccccc2)c(C#N)c(N2CCN(C(=O)c3ccoc3)C(c3ccccc3)C2)n1 (stereo not drawn) [Compound 154, 2-(4-(furan-3-carbonyl)-3-phenylpiperazin-1-yl)-6-isopropyl-4-phenylnicotinonitrile] | 4.82 to 5.30
CC(C)c1cc(-c2ccccc2)c(C#N)c(N2CCN(C(=O)c3ccco3)C(c3ccccc3)C2)n1 (stereo not drawn) [Compound 155, 2-(4-(furan-2-carbonyl)-3-phenylpiperazin-1-yl)-6-isopropyl-4-phenylnicotinonitrile] | 4.82 to 5.30

Structure (SMILES) | pIC50
CC(C)c1cc(-c2cccc(F)c2)c(C#N)c(N2CCN(C(=O)c3ccoc3)[C@H](C)C2)n1 [Compound 156] | 5.30 to 6.00
CC(C)c1cc(-c2ccccc2O)c(C#N)c(N2CCN(C(=O)c3ccoc3)[C@H](C)C2)n1 [Compound 157, (R)-2-(4-(furan-3-carbonyl)-3-methylpiperazin-1-yl)-4-(2-hydroxyphenyl)-6-isopropylnicotinonitrile] | 4.82 to 5.30
Cc1ccccc1-c1cc(C(C)C)nc(N2CCN(C(=O)c3ccoc3)[C@H](C)C2)c1C#N [Compound 158] | 5.30 to 6.00
CC(C)c1nc(N2CCN(C(=O)c3ccoc3)CC2c2ccccc2)c(C#N)cc1-c1ccccc1 (stereo not drawn) [Compound 159, 2-(4-(furan-3-carbonyl)-2-phenylpiperazin-1-yl)-6-isopropyl-5-phenylnicotinonitrile] | 4.82 to 5.30
CC(C)c1cc(-c2ccccc2)c(C#N)c(N2CCN(C(=O)c3ccoc3)CC2c2ccccc2)n1 (stereo not drawn) [Compound 160, 2-(4-(furan-3-carbonyl)-2-phenylpiperazin-1-yl)-6-isopropyl-4-phenylnicotinonitrile] | 4.82 to 5.30
CC(C)c1nc(N2CCN(C(=O)c3ccoc3)[C@H](C)C2)c(C#N)cc1-c1cccc(F)c1 [Compound 161, (R)-5-(3-fluorophenyl)-2-(4-(furan-3-carbonyl)-3-methylpiperazin-1-yl)-6-isopropylnicotinonitrile] | 5.30 to 6.00
CC(=O)Oc1ccccc1-c1cc(C(C)C)nc(N2CCN(C(=O)c3ccoc3)[C@H](C)C2)c1C#N [Compound 162, (R)-2-(3-cyano-2-(4-(furan-3-carbonyl)-3-methylpiperazin-1-yl)-6-isopropylpyridin-4-yl)phenylacetate] | 5.30 to 6.00
CCOc1ccccc1-c1cc(C(C)C)nc(N2CCN(C(=O)c3ccoc3)[C@H](C)C2)c1C#N [Compound 163, (R)-4-(2-ethoxyphenyl)-2-(4-(furan-3-carbonyl)-3-methylpiperazin-1-yl)-6-isopropylnicotinonitrile] | 5.30 to 6.00
Cc1occc1C(=O)N1CCN(c2nc(C(C)C)c(-c3ccccc3)cc2C#N)C[C@H]1C [Compound 164, (R)-6-isopropyl-2-(3-methyl-4-(2-methylfuran-3-carbonyl)piperazin-1-yl)-5-phenylnicotinonitrile] | 5.30 to 6.00
CC(C)c1nc(N2CCN(C(=O)Cc3cccs3)[C@H](C)C2)c(C#N)cc1-c1ccccc1 [Compound 165, (R)-6-isopropyl-2-(3-methyl-4-(2-(thiophen-2-yl)acetyl)piperazin-1-yl)-5-phenylnicotinonitrile] | 5.30 to 6.00
CC(C)c1nc(N2CCN(C(=O)c3ccco3)CC2c2ccccc2)c(C#N)cc1-c1ccccc1 (stereo not drawn) [Compound 166, 2-(4-(furan-2-carbonyl)-2-phenylpiperazin-1-yl)-6-isopropyl-5-phenylnicotinonitrile] | 4.82 to 5.30
CC(C)c1cc(-c2ccccc2)c(C#N)c(N2CCN(C(=O)c3ccco3)CC2c2ccccc2)n1 (stereo not drawn) [Compound 167, 2-(4-(furan-2-carbonyl)-2-phenylpiperazin-1-yl)-6-isopropyl-4-phenylnicotinonitrile] | 5.30 to 6.00
CC(C)c1nc(N2CCN(C(=O)c3c[nH]c4ccccc34)CC2c2ccccc2)c(C#N)cc1-c1ccccc1 (stereo not drawn) [Compound 168, 2-(4-(1H-indole-3-carbonyl)-2-phenylpiperazin-1-yl)-6-isopropyl-5-phenylnicotinonitrile] | 5.30 to 6.00
CC(C)c1cc(-c2ccccc2)c(C#N)c(N2CCN(C(=O)c3c[nH]c4ccccc34)CC2c2ccccc2)n1 (stereo not drawn) [Compound 169, 2-(4-(1H-indole-3-carbonyl)-2-phenylpiperazin-1-yl)-6-isopropyl-4-phenylnicotinonitrile] | 5.30 to 6.00
CC(C)c1nc(N2CCN(C(=O)c3ccoc3)[C@H](C(C)C)C2)c(C#N)cc1-c1ccccc1 [Compound 170, (R)-2-(4-(furan-3-carbonyl)-3-isopropylpiperazin-1-yl)-6-isopropyl-5-phenylnicotinonitrile] | 5.30 to 6.00
CC[C@@H]1CN(c2nc(C(C)C)c(-c3ccccc3)cc2C#N)CCN1C(=O)c1ccoc1 [Compound 171, (R)-2-(3-ethyl-4-(furan-3-carbonyl)piperazin-1-yl)-6-isopropyl-5-phenylnicotinonitrile] | 5.30 to 6.00
CC[C@@H]1CN(c2nc(C(C)C)c(-c3ccccc3)cc2C#N)CCN1C(=O)c1ccco1 [Compound 172, (R)-2-(3-ethyl-4-(furan-2-carbonyl)piperazin-1-yl)-6-isopropyl-5-phenylnicotinonitrile] | 4.82 to 5.30
CC[C@@H]1CN(c2nc(C(C)C)c(-c3ccccc3)cc2C#N)CCN1C(=O)c1ccoc1C [Compound 173, (R)-2-(3-ethyl-4-(2-methylfuran-3-carbonyl)piperazin-1-yl)-6-isopropyl-5-phenylnicotinonitrile] | 5.30 to 6.00
